US6268181A, “Methods for producing a potentiator of Bacillus pesticidal activity” (Valent BioSciences, Corporation, priority 1998, dated 2001)

Experiments:
Helicoverpa zea = test: Diet incorporation bioassay, second instar Helicoverpa zea; type: in vivo; conditions: BIOBIT HPWP, 3.2 g Ia per BIU
Description: (§1) B.t.k. activity is determined by an artificial diet incorporation bioassay using third instar Spodoptera exigua larvae, second instar Helicoverpa zea larvae, third instar Spodoptera frugiperda larvae, second instar Heliothis virescens larvae, third instar Trichoplusia ni larvae, third instar Pseudoplusia includens larvae, third instar Plutella xylostella larvae, third instar Spodoptera littoralis, and third instar Mamestra brassicae larvae.
(§2) To determine the level of potentiation by adding Ia to B.t. products, and establish the range of insects that are affected, diet incorporation bioassays are performed. In the experiments with high concentrations of Ia against Spodoptera exigua (7.4-23.7 g Ia/BIU), purified Ia (70% active ingredient, 30% acetate counter ion) is used to potentiate BIOBIT™ FC (FC represents flowable concentrate). […] S. littoralis and M. brassicae are tested using FLORBAC™ HPWP and Ia.
(§3) The various B.t. products are weighed and Ia is added to give 0.1 to 237 g Ia/BIU. The volume is adjusted with 0.1% Tween™. The samples are sonicated for 1 minute and then diluted to final volume. Neat samples (without Ia) and reference substances are prepared as well. Reference substances include B.t.k. […]
(§4) After four days, insect mortality is rated. […] Percent mortality is calculated and the data is analyzed via parallel probit analysis. […]

Trichoplusia ni = test: Diet incorporation bioassay, third instar Trichoplusia ni; type: in vivo; conditions: BIOBIT HPWP
Description: as §1, §2
(§5) The various B.t. products are weighed and Ia is added to give 0.1 to 237 g Ia/BIU. The volume is adjusted with 0.1% Tween™. The samples are sonicated for 1 minute and then diluted to final volume. Neat samples (without Ia) and reference substances are prepared as well. Reference substances include B.t.k.
(§6) Standard artificial diet composed of water, agar, sugar, casein, wheat germ, methyl paraben, sorbic acid, linseed oil, cellulose, salts, and vitamins are prepared in a 20 L heated kettle. This provides enough diet to test 10 to 12 samples with seven different concentrations of each test substance. The B.t. solutions are serially diluted to give 16 ml aliquots. Each aliquot is added to 184 g of molten diet. The mixture is subsequently homogenized and then poured into a plastic tray bearing 40 individual cells. Three control trays are prepared for each batch of diet. Once the diet has cooled and solidified, one insect of a known age (2-3 instar) is added to each cell, and the trays are covered with a perforated sheet of clear mylar. The trays are placed on racks and incubated for four days at 28° C. and 65% relative humidity.
(§7) After four days, insect mortality is rated. […] Percent mortality is calculated and the data is analyzed via parallel probit analysis. LC50 s, LC90 s, the slope of the regression lines, coefficient of variation, and potencies are estimated. Samples are run a minimum of 3 times or until three potencies are within 20% of a calculated mean for each sample. To calculate the increase in activity associated with each concentration of Ia, the LC50 of the B.t./Ia sample is corrected to reflect the amount of B.t. in the sample. The Lc50 s of the paired neat samples are divided by the corrected LC50 values to give the fold reduction in LC50 associated with Ia.

Spodoptera littoralis = test: Diet incorporation bioassay, third instar Spodoptera littoralis; type: in vivo; conditions: FLORBAC HPWP, 2.0 g Ia per BIU
Description: as §1, §2, §3, §4

Lobesia bothrana = Lobesia bothrana assay (larvae drinking dilution, grape berries); type: in vivo; conditions: BIOBIT HPWP, 2.0 g Ia per BIU
Description: The following procedure is used to assay for Lobesia bothrana. Vine grapes attacked by Lobesia bothrana are collected in an unsprayed field and larva is removed. A dilution series of Ia (250 μg/ml, 500 μg/ml, and 1000 μg/ml) is made in water. One larva is put in the middle of the petri dish. If the larva is observed to drink, it is moved into a petri dish with freshly cut grape berries. The larvae are stored at 22° C. for 3-4 days.

Mamestra brassicae = test: Diet incorporation bioassay, third instar Mamestra brassicae; type: in vivo; conditions: FLORBAC HPWP, 2.0 g Ia per BIU
Description: as §1, §2, §3, §4

Spodoptera exigua [1] = test: Diet incorporation bioassay, third instar Spodoptera exigua; type: in vivo
Description: as §1, §2, §5, §6, §7
The potentiation of various produces on Spodoptera exigua by Ia is determined using diet incorporation bioassays described supra. Ia/B.t. product mixture is incorporated into an agar-based wheat germ casein diet. The insects are placed on the diet for four days and held at 28° C. Mortality is recorded and analyzed using probit analysis. LC50, LC90 and potency are calculated from matched product lacking Ia. The results shown in Table V indicate that Ia potentiate various B.t.k. and B.t.a. products obtained from various sources. The B.t. strains contained in these products are described in Section 5.2., supra.

Plutella xylostella = test: Diet incorporation bioassay, third instar Plutella xylostella; type: in vivo; conditions: BIOBIT HPWP
Description: as §1, §2, §5, §6, §7

Heliothis virescens = test: Diet incorporation bioassay, second instar Heliothis virescens; type: in vivo; conditions: BIOBIT HPWP, 3.2 g Ia per BIU
Description: as §1, §2, §3, §4

[2] = Solubility of the active compound; type: physicochemical
Spodoptera frugiperda = test: Diet incorporation bioassay, third instar Spodoptera frugiperda; type: in vivo; conditions: BIOBIT HPWP
Description: as §1, §2, §5, §6, §7

[3] = Stability of Ia determined by bioassay; type: physicochemical
Description: (§8) Activity is monitored by a Spodoptera exigua micro-bioassay, and purity is determined by capillary electrophoresis. Sample consisting of 50 μl of Ia and 50 μl of CryIA(c) protein (15 μg/ml) purified from BIOBIT™ FC (100 μl), is applied to individual wells of a jelly tray containing 500 μl of solidified artificial insect diet. The trays containing the various samples are air dried. Two to four 2nd or early 3rd instar Spodoptera exigua are added to the wells containing the dried sample. The wells are sealed with mylar poked with holes and are incubated for 2-3 days at 30° C. Degree of stunting and percent mortality are then recorded. Typically, 5 replicate wells are run for each sample.
Further, it is stable when subjected to direct sunlight for at least 10 hours. Ia is stable at pH 2 for 3 days, but unstable at pH 12.

Pseudoplusia includens = test: Diet incorporation bioassay, third instar Pseudoplusia includens; type: in vivo; conditions: BIOBIT HPWP
Description: as §1, §2, §5, §6, §7

Spodoptera exigua [4] = test: Spodoptera exigua micro-bioassay (potentiation of Bt Cry protein by Ia); type: in vivo
Description: as §8, with “Sample consisting of 50 μl of Ia and 50 μl of CryIA(c) protein (15 μg/ml) purified from BIOBIT™ FC (100 μl), is applied to individual wells of a jelly tray containing 500 μl of solidified artificial insect diet.” left out
*Mortality = # insects dead/# total insects after 2 days
.dagger.Stunt score is defined by the average size of the live insect
larvae at the end of the bioassay: 4.0 = untreated control, 3.0 = 75% size
of untreated control, 2.0 = 50% size of untreated control, 1.0 = 25% size
of untreated control, 0.0 = no growth or size unchanged from start of […]

What does the source list for NC(=O)NCC(NC(=O)C(O)C(O)C(N)C(O)CC(O)C(N)CO)C(N)=O (centres unmarked) [Ia]?
Increase in activity, Fold reduction in LC50 (Helicoverpa zea): 12.6 Fold; Increase in activity, Fold reduction in LC50 (Trichoplusia ni; 0.1 g Ia per BIU): 1.1 Fold; Increase in activity, Fold reduction in LC50 (Trichoplusia ni; 0.2 g Ia per BIU): 1.2 Fold; Increase in activity, Fold reduction in LC50 (Trichoplusia ni; 2.0 g Ia per BIU): 2.0 Fold; Increase in activity, Fold reduction in LC50 (Trichoplusia ni; 4.0 g Ia per BIU): 3.1 Fold; Increase in activity, Fold reduction in LC50 (Spodoptera littoralis): 8.6 Fold; Increase in activity, Fold reduction in LC50 (Lobesia bothrana): 3.0 Fold; Increase in activity, Fold reduction in LC50 (Mamestra brassicae): 4.9 Fold; Increase in activity, Fold reduction in LC50 (Spodoptera exigua [1]; BIOBIT FC, 7.4 g Ia per BIU, purified Ia): 13 Fold; Increase in activity, Fold reduction in LC50 (Spodoptera exigua [1]; BIOBIT FC, 15 g Ia per BIU, purified Ia): 26 Fold; Increase in activity, Fold reduction in LC50 (Spodoptera exigua [1]; BIOBIT FC, 30 g Ia per BIU, purified Ia): 34 Fold; Increase in activity, Fold reduction in LC50 (Spodoptera exigua [1]; BIOBIT FC, 118 g Ia per BIU, purified Ia): 59 Fold; Increase in activity, Fold reduction in LC50 (Spodoptera exigua [1]; BIOBIT FC, 237 g Ia per BIU, purified Ia): 79 Fold; Increase in activity, Fold reduction in LC50 (Spodoptera exigua [1]; BIOBIT HPWP, 0.1 g Ia per BIU): 1.5 Fold; Increase in activity, Fold reduction in LC50 (Spodoptera exigua [1]; BIOBIT HPWP, 0.2 g Ia per BIU): 1.7 Fold; Increase in activity, Fold reduction in LC50 (Spodoptera exigua [1]; BIOBIT HPWP, 2.0 g Ia per BIU): 4.3 Fold; Increase in activity, Fold reduction in LC50 (Spodoptera exigua [1]; BIOBIT HPWP, 4.0 g Ia per BIU): 7.5 Fold; Increase in activity, Fold reduction in LC50 (Plutella xylostella; 0.2 g Ia per BIU): 1.6 Fold; Increase in activity, Fold reduction in LC50 (Plutella xylostella; 0.8 g Ia per BIU): 1.3 Fold; Increase in activity, Fold reduction in LC50 (Plutella xylostella; 2.0 g Ia per BIU): 1.4 Fold; Increase in activity, Fold reduction in LC50 (Plutella xylostella; 4.0 g Ia per BIU): 1.9 Fold; Increase in activity, Fold reduction in LC50 (Heliothis virescens): 4.2 Fold; solubility in organic solvents ([2]; organic solvents): not soluble in organic solvents; water solubility ([2]; water): water soluble; Increase in activity, Fold reduction in LC50 (Spodoptera frugiperda; 0.2 g Ia per BIU): 2.2 Fold; Increase in activity, Fold reduction in LC50 (Spodoptera frugiperda; 0.8 g Ia per BIU): 3.9 Fold; Increase in activity, Fold reduction in LC50 (Spodoptera frugiperda; 2.0 g Ia per BIU): 7.2 Fold; Increase in activity, Fold reduction in LC50 (Spodoptera frugiperda; 4.0 g Ia per BIU): 11.6 Fold; stability ([3]; autoclaving (>190C)): loses all activity; stability ([3]; boiling for 5 minutes): stable; stability ([3]; direct sunlight for at least 10 hours): stable; stability ([3]; exposed to periodic acid or concentrated HCl): lose all activity; stability ([3]; pH 2 for 3 days): stable; stability ([3]; pH 12): unstable; Increase in activity, Fold reduction in LC50 (Pseudoplusia includens; 0.1 g Ia per BIU): 0 Fold; Increase in activity, Fold reduction in LC50 (Pseudoplusia includens; 0.2 g Ia per BIU): 1.2 Fold; Increase in activity, Fold reduction in LC50 (Pseudoplusia includens; 0.8 g Ia per BIU): 2.1 Fold; Increase in activity, Fold reduction in LC50 (Pseudoplusia includens; 2.0 g Ia per BIU): 2.4 Fold; Increase in activity, Fold reduction in LC50 (Pseudoplusia includens; 4.0 g Ia per BIU): 3.4 Fold; potentiation of crystal delta-endotoxin (Spodoptera exigua [4]; Bacillus thuringiensis subsp. kurstaki and aizawai crystal delta-endotoxin proteins): potentiate the activity; level of potentiation (Spodoptera exigua [4]; CryIC inclusions): 250 fold; potentiation of pesticidal activity (Spodoptera exigua [4]; CryII and CryIC inclusions): also potentiated; potentiation (Spodoptera exigua [4]; CryII inclusions): 125 fold; Mortality (Spodoptera exigua [4]; Ia alone, no Bt protein, after 2 days): 0/5; Stunt Score (Spodoptera exigua [4]; Ia alone, no Bt protein, 4.0 = untreated control, 0.0 = no growth): 4.0; potentiation of pesticidal activity (Spodoptera exigua [4]; formulated B.t.k., isolated crystals, full-length or truncated CryIA proteins): all potentiated; level of potentiation (Spodoptera exigua [4]; full-length CryIA(c)): approximately 320 fold; potentiation of pesticidal activity (Spodoptera exigua [4]; individual truncated CryIA(a), (b), and (c) proteins): potentiate the activity; level of potentiation (Spodoptera exigua [4]; truncated CryIA proteins, CryII and CryIC inclusions): 100-200 fold; activity of Ia alone (Spodoptera exigua [4]; without Cry protein): inactive alone
